Measurements taken from PMC10318456, “Selective inhibitors of the PSEN1–gamma-secretase complex” (The Journal of Biological Chemistry, 2023).

How the values were obtained:
Assay type in all cases: cell-based
[1] = biological target: T1, PSEN1 WT–APH1A γ-secretase complex (Homo sapiens, UniProt P49768); assay: Aβ40 secretion, MEF cell pool restored with PSEN1 WT–APH1A; conditions: decimal comma; for IC50 fold change to WT: PSEN1 WT–APH1A cell pool (reference); for IC50: PSEN1 WT–APH1A cell pool, N = 3 to 4, mean (95% CI)
T1 construct: expressed in transfected cells; host or cells: Psen1/2 double KO/Aph1ABC triple KO MEFs
Procedure: (§1) We turned to experimental site–directed mutagenesis and selected a series of amino acids (Fig. 3) in the entrance channel for mutation to alanine. […] More importantly, they were all enzymatically active as shown by the secretion of Aβ40 in the supernatants of the cell cultures (Fig. 3B).
(§2) Conditional Psen1/2 double KO mice were crossed with conditional Aph1ABC triple KO mice ([29], [52], [58], [59]). At embryonic day 7.5, embryos were dissected and dissociated, and cells were plated in the presence of Dulbecco’s modified Eagle’s medium (DMEM)/F12 50% fetal calf serum (FCS) (Invitrogen). Primary MEFs were immortalized by transduction with LargeT antigen. Psen1/2 double KO/Aph1ABC triple KO MEFs were generated by transduction with a Cre-GFP–expressing adenoviral vector, and GFP-positive MEFs were sorted by fluorescence-activated cell sorting analysis. Psen1/2 Aph1ABC-deficient MEFs were maintained in DMEM/f12 10% FCS. To rescue γ-secretase expression, Psen1/2 double KO/Aph1ABC triple KO MEFs were transduced using Murine Stem Cell Virus retroviral vector system (pMSCV) viral vectors (Clontech) containing the human coding sequences of the different PSEN and APH1 homologs and the zeocin selection marker. An Internal Ribosome Entry Site sequence was cloned between the coding sequences for PSEN and APH1 to ensure co-expression of both proteins. Stable transfected cell lines were selected using 500-μg/ml zeocin (Invitrogen). Four different combinations were made: PSEN1 and APH1AL, PSEN1 and APH1B, PSEN2 and APH1AL, and PSEN2 and APH1B. These cell lines were transduced with pMSCV viral vectors (Clontech) expressing APP-C99-GFP-puromycin. After puromycin selection (5 μg/ml), GFP-positive cells were selected through FACS sorting. For the alanine mutagenesis experiment, pMSCV PSEN1-APH1A viral vectors were generated by using a long PCR-based QuikChange strategy (Stratagene). Stable cell lines without clonal selection were generated for each mutant as described above. All cell lines were regularly tested for the absence of mycoplasma and used for maximum 20 passages in culture.
The number of plated cells and incubation times were determined in respect to linearity of Aβ peptide secretion, the dynamic range of Aβ peptide quantification in the medium, and sensitivity to dimethylsulfoxide (DMSO). […] MEF cells were plated in DMEM F12 supplemented with 10% FCS at 10,000 cells per well in 96-well clear bottom plates in the late afternoon and cultured for 16 h at 37 °C, 5% CO2. In the morning of the second day, the medium was replaced with 60 μl of DMEM/F12 supplemented with 2% FCS, and GSI or DMSO (controls) were added. Compounds were tested in serial dilutions with concentrations ranging from […] to 0.1 nM with 3-fold changes. The final concentration of DMSO in all wells was 0.2%. Plates were put in the incubator again at 37 °C, 5% CO2. After 8 h, the culture media were collected, and 30 μl was used to measure Aβ40 peptides. The cell viability was assessed using the CellTiter-Glo Luminescent assay (Promega) that measures ATP production. All screens were performed at one site, and reported IC50 values throughout the manuscript are from this site (Beerse) unless otherwise indicated. We however measured five compounds at the Leuven site and noticed that absolute IC50 values were different (Fig. S2). The main goal of the current work is to explore the basis for inhibitor selectivity for different γ-secretases, and selectivity was consistent in the assays at the two sites (Fig. S2).
Standard 96-well SECTOR plates (MSD) were coated with 1.5 μg/ml anti-Aβ JRFcAβ40/28 capture antibody in a final volume of 50 μl of PBS 0.05% Tween 20. After overnight incubation at 4 °C, the plates were five times rinsed with PBS 0.05% Tween 20 and blocked with 150 μl per well of casein buffer (PBS with 1% casein, pH 7.4) for 4 h at room temperature. Standards (synthetic human Aβ 1–40) were diluted in culture media. […]

[2] = biological target: T2, PSEN1 W165A–APH1A γ-secretase complex (Homo sapiens, UniProt P49768, W165A); assay: Aβ40 secretion, MEF cell pool restored with PSEN1 W165A–APH1A; conditions: decimal comma
T2 construct: expressed in transfected cells; host or cells: Psen1/2 double KO/Aph1ABC triple KO MEFs, pools without clonal selection
Procedure: as §1
as §2, with “After puromycin selection (5 μg/ml), GFP-positive cells were selected through FACS sorting. For the alanine mutagenesis experiment, pMSCV PSEN1-APH1A viral vectors were generated by using a long PCR-based QuikChange strategy (Stratagene). Stable cell lines without clonal selection were generated for each mutant as described above. All cell lines were regularly tested for the absence of mycoplasma and used for maximum 20 passages in culture.” left out
(§3) The number of plated cells and incubation times were determined in respect to linearity of Aβ peptide secretion, the dynamic range of Aβ peptide quantification in the medium, and sensitivity to dimethylsulfoxide (DMSO). […] The cell viability was assessed using the CellTiter-Glo Luminescent assay (Promega) that measures ATP production. […] We however measured five compounds at the Leuven site and noticed that absolute IC50 values were different (Fig. S2). […]

[3] = biological target: T3, PSEN1-APH1A γ-secretase complex (Homo sapiens, UniProt P49768); assay: Aβ40 secretion by MEF cell line expressing only PSEN1-APH1A γ-secretase (APP-C99-GFP reporter); conditions: 8 h, Beerse site unless otherwise indicated, read-out: IC50, Aβ40 peptides
T3 construct: expressed in transfected cells; host or cells: Psen1/2 double KO/Aph1ABC triple KO MEFs, pMSCV retroviral PSEN-IRES-APH1
Description: Mouse embryonic fibroblast (MEF) cells deficient for the Psen and Aph1 genes (Psen1/2^−/−, Aph1ABC^−/−) were reconstituted with human PSEN1 or PSEN2 and with human APH1A or APH1B to generate four independent cell lines, each constitutively expressing exclusively one type of γ-secretase complex (Fig. S1A) ([19]). A human APP-C99-GFP reporter was introduced to enable the measurement of Aβ peptides in the conditioned media of the cells to monitor γ-secretase activity. The assay was established in a 96-well format.
as §2
The number of plated cells and incubation times were determined in respect to linearity of Aβ peptide secretion, the dynamic range of Aβ peptide quantification in the medium, and sensitivity to dimethylsulfoxide (DMSO). […] The cell viability was assessed using the CellTiter-Glo Luminescent assay (Promega) that measures ATP production. […]

[4] = biological target: T4, PSEN1 W165A–APH1A γ-secretase complex (Homo sapiens, UniProt P49768+Q92542+Q96BI3+Q9NZ42, W165A); assay: Aβ40 secretion, MEF cell pool restored with PSEN1 W165A–APH1A; conditions: PSEN1 W165A (TM3)–APH1A cell pool; N = 3 to 4; mean (95% CI); decimal comma
T4 construct: expressed in transfected cells; host or cells: Psen1/2 double KO/Aph1ABC triple KO MEFs, pools without clonal selection
Procedure: as §1
as §2, with “After puromycin selection (5 μg/ml), GFP-positive cells were selected through FACS sorting. For the alanine mutagenesis experiment, pMSCV PSEN1-APH1A viral vectors were generated by using a long PCR-based QuikChange strategy (Stratagene). Stable cell lines without clonal selection were generated for each mutant as described above. All cell lines were regularly tested for the absence of mycoplasma and used for maximum 20 passages in culture.” left out
as §3

IC50 fold change to WT [1] [fold]	IC50 [1] [µM]	IC50 ([2]; PSEN1 W165A (TM3)–APH1A cell pool, N = 3 to 4, mean (95% CI)) [µM]	IC50 fold change to WT ([2]; PSEN1 W165A–APH1A cell pool)	IC50 [3] [nM]	IC50 [4] [µM]	Structure (SMILES)
1	0.169	0.304	1,802 fold			C[C@H](NC(=O)Cc1cc(F)cc(F)c1)C(=O)N[C@H](C(=O)OC(C)(C)C)c1ccccc1 [DAPT]
1	0.029			22	0.102	O=S(=O)(c1ccc(Cl)cc1)N1[C@H]2CC[C@@H]([C@H]1c1ccc(C(F)(F)F)cc1)[C@@H](O)C2 [(+)-9b]
